Reference: ChEMBL document CHEMBL4190323, “New racemic annulated pyrazolo[1,2-b]phthalazines as tacrine-like AChE inhibitors with potential use in Alzheimer's disease” (Eur J Med Chem, 2017)
pIC50, pKi: −log10 of the molar value. The source made the active and inactive calls. The rule behind the calls is not given here.

Legend:
Acetylcholinesterase [1] = target: T1, Acetylcholinesterase (Electrophorus electricus, UniProt O42275); assay: Inhibition of electric eel AChE using acetylthiocholine iodide as substrate preincubated for 10 mins followed by substrate addition measured for 6 mins by Ellman's method
Cholinesterase = Cholinesterase (Equus caballus, UniProt P81908); assay: Inhibition of equine serum BuChE using butyrylthiocholine iodide as substrate preincubated for 10 mins followed by substrate addition measured for 6 mins by Ellman's method
in vitro [2] = conditions: human, HepG2 cells
Description: Cytotoxicity against human HepG2 cells assessed as cell viability at 50 uM after 24 hrs by MTT assay relative to control

in vitro [3] = conditions: human, HepG2 cells; remark: listed apart in the source
Description: Cytotoxicity against human HepG2 cells assessed as cell viability at 300 uM after 24 hrs by MTT assay relative to control

in vitro [4] = conditions: human, HepG2 cells; remark: listed apart in the source
Description: Cytotoxicity against human HepG2 cells assessed as cell viability at 10 uM after 24 hrs by MTT assay relative to control

in vitro [5] = conditions: human, HepG2 cells; remark: listed apart in the source
Description: Cytotoxicity against human HepG2 cells assessed as cell viability at 25 uM after 24 hrs by MTT assay relative to control

in vitro [6] = conditions: human, HepG2 cells; remark: listed apart in the source
Description: Cytotoxicity against human HepG2 cells assessed as cell viability at 100 uM after 24 hrs by MTT assay relative to control

in vitro [7] = conditions: human, HepG2 cells; remark: listed apart in the source
Description: Cytotoxicity against human HepG2 cells assessed as cell viability at 1 uM after 24 hrs by MTT assay relative to control

in vitro [8] = conditions: human, HepG2 cells; remark: listed apart in the source
Description: Cytotoxicity against human HepG2 cells assessed as cell viability at 5 uM after 24 hrs by MTT assay relative to control

[9] = target: Acetylcholinesterase (Electrophorus electricus) (UniProt O42275); assay: Potency index, ratio of IC50 for tacrine to IC50 for test compound for electric eel AChE
PC-12 [10] = assay: Neurotoxicity in rat PC12 cells assessed as reduction in cell viability at 1 to 10 uM after 24 hrs by MTT assay; assay type: toxicity, cell-based; conditions: pc-12, 24 h
Acetylcholinesterase [11] = target: T1, Acetylcholinesterase; assay: Mixed-type inhibition of electric eel AChE using acetylthiocholine iodide as substrate preincubated for 10 mins followed by substrate addition measured for 6 mins by Lineweaver-Burk plot analysis
PC-12 [12] = assay: Neuroprotective activity in rat PC12 cells assessed as decrease in H2O2 mediated apoptosis at 10 uM preincubated for 3 hrs followed by H2O2 challenge measured after 24 hrs by MTT assay; assay type: functional, cell-based
PC-12 [13] = assay: Neuroprotective activity in rat PC12 cells assessed as decrease in H2O2 mediated apoptosis at 1 uM preincubated for 3 hrs followed by H2O2 challenge measured after 24 hrs by MTT assay; assay type: functional, cell-based
PC-12 [14] = assay: Neuroprotective activity in rat PC12 cells assessed as decrease in H2O2-mediated apoptosis at 100 uM preincubated for 3 hrs followed by H2O2 challenge measured after 24 hrs by MTT assay; assay type: functional, cell-based

T1 sequence (O42275 whole entry): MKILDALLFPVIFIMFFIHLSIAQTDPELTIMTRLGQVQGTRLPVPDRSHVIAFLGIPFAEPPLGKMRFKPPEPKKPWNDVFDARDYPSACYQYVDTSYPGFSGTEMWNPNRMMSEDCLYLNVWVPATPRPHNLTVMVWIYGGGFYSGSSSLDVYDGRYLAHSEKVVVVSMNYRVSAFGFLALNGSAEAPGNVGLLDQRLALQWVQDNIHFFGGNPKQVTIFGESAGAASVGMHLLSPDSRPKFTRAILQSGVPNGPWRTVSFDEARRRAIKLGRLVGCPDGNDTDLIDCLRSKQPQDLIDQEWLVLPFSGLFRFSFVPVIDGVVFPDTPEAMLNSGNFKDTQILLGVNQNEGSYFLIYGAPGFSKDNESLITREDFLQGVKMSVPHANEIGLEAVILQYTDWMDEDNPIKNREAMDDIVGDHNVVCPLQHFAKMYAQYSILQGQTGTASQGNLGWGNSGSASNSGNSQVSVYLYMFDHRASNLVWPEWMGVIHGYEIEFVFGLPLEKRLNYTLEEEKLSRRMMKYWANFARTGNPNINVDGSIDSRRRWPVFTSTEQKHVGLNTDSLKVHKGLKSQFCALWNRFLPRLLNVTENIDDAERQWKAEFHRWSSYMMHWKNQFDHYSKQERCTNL
Cholinesterase, sequence (P81908 whole entry): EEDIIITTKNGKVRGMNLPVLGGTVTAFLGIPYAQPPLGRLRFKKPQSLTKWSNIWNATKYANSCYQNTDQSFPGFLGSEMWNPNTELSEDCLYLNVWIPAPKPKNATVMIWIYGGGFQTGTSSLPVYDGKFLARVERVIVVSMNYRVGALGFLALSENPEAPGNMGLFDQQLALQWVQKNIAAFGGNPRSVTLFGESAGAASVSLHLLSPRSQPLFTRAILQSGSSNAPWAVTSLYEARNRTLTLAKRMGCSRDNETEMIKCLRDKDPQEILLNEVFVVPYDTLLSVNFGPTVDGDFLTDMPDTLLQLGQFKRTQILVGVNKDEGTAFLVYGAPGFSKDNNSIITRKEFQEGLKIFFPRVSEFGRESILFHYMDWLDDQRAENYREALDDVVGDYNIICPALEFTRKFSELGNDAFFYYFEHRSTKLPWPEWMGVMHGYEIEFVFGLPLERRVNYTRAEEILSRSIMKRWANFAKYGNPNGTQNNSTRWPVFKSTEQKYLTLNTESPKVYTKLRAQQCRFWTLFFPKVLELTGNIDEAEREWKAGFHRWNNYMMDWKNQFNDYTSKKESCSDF
Acetylcholinesterase (Electrophorus electricus), sequence (O42275 24-633 limits assumed): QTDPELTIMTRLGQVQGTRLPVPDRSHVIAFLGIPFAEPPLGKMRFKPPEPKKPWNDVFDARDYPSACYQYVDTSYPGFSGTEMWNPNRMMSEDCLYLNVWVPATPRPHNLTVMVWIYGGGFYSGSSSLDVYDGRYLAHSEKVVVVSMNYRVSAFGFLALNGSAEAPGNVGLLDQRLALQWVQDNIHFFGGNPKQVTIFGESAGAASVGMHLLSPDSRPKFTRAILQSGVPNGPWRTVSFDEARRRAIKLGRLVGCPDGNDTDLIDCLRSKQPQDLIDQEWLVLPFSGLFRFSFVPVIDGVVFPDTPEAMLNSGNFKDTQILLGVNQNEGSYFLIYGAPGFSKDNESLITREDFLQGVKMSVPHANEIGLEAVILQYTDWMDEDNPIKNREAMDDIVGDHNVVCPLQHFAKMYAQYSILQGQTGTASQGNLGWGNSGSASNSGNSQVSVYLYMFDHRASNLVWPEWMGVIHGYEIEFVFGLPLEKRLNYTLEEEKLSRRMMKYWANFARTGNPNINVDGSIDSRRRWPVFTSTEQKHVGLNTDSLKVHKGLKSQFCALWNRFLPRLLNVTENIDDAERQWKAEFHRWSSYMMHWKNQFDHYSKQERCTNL

SMILES | pIC50 (Acetylcholinesterase [1]) | pIC50 (Cholinesterase) | other results
Nc1c2c(nc3c1C(c1ccccc1)n1c(=O)c4ccccc4c(=O)n1-3)CCCC2 (centres undefined) | 6.21 | < 4.00 | 
Cc1ccccc1C1c2c(nc3c(c2N)CCCC3)-n2c(=O)c3ccccc3c(=O)n21 (centres undefined) | 6.71 | < 4.00 | 
Nc1c2c(nc3c1C(c1cccc(Br)c1)n1c(=O)c4ccccc4c(=O)n1-3)CCCC2 (centres undefined) | 6.57 | < 4.00 | 
Nc1c2c(nc3c1C(c1ccc(Br)cc1)n1c(=O)c4ccccc4c(=O)n1-3)CCCC2 (centres undefined) | 7.10 | < 4.00 | viability at 24 h, 50 µM (in vitro [2]): 95.7%; viability at 24 h, 300 µM (in vitro [3]): 90%; viability at 24 h, 10 µM (in vitro [4]): 97.6%; viability at 24 h, 25 µM (in vitro [5]): 96.4%; viability at 24 h, 100 µM (in vitro [6]): 92.8%; viability at 24 h, 1 µM (in vitro [7]): 99.8%; viability at 24 h, 5 µM (in vitro [8]): 98.3%
Nc1c2c(nc3c1C(c1cccc([N+](=O)[O-])c1)n1c(=O)c4ccccc4c(=O)n1-3)CCCC2 (centres undefined) | 6.85 | < 4.00 | 
Nc1c2c(nc3c1C(c1cccc(F)c1)n1c(=O)c4ccccc4c(=O)n1-3)CCCC2 (centres undefined) | 7.64 | 4.43 | viability at 24 h, 50 µM (in vitro [2]): 78.8%; Ratio IC50 [9]: 15; viability at 24 h, 300 µM (in vitro [3]): 68.2%; viability at 24 h, 10 µM (in vitro [4]): 86.1%; viability at 24 h, 25 µM (in vitro [5]): 82.7%; viability at 24 h, 100 µM (in vitro [6]): 74.8%; viability at 24 h, 1 µM (in vitro [7]): 93.5%; viability at 24 h, 5 µM (in vitro [8]): 90.9%
CC1c2c(nc3c(c2N)CCCC3)-n2c(=O)c3ccccc3c(=O)n21 (centres undefined) | 5.67 | < 4.00 | 
COc1ccccc1C1c2c(nc3c(c2N)CCCC3)-n2c(=O)c3ccccc3c(=O)n21 (centres undefined) | 7.31 | 4.03 | viability at 24 h, 50 µM (in vitro [2]): 87.3%; viability at 24 h, 300 µM (in vitro [3]): 83%; Activity (PC-12 [10]): Non-Toxic; viability at 24 h, 10 µM (in vitro [4]): 95.2%; pKi (Acetylcholinesterase [11]): 7.90; Activity (PC-12 [12]): inactive; viability at 24 h, 25 µM (in vitro [5]): 90.2%; Activity (PC-12 [13]): inactive; viability at 24 h, 100 µM (in vitro [6]): 86.4%; viability at 24 h, 1 µM (in vitro [7]): 96.3%; viability at 24 h, 5 µM (in vitro [8]): 95%; Activity (PC-12 [14]): Active
CCCC1c2c(nc3c(c2N)CCCC3)-n2c(=O)c3ccccc3c(=O)n21 (centres undefined) | 5.79 | < 4.00 | 
Nc1c2c(nc3c1C(c1cccc(O)c1)n1c(=O)c4ccccc4c(=O)n1-3)CCCC2 (centres undefined) | 6.80 | < 4.00 | 
O=c1c(O)c(-c2ccc(O)c(O)c2)oc2cc(O)cc(O)c12 |  |  | Activity (PC-12 [12]): Active
Nc1c2c(nc3c1C(c1ccccc1Br)n1c(=O)c4ccccc4c(=O)n1-3)CCCC2 (centres undefined) | 6.22 | < 4.00 | 
Nc1c2c(nc3c1C(c1ccc([N+](=O)[O-])cc1)n1c(=O)c4ccccc4c(=O)n1-3)CCCC2 (centres undefined) | 6.51 | < 4.00 | 
Cc1ccc(C2c3c(nc4c(c3N)CCCC4)-n3c(=O)c4ccccc4c(=O)n32)cc1 (centres undefined) | 7.00 | < 4.00 | 
Nc1c2c(nc3c1C(c1ccc(F)cc1)n1c(=O)c4ccccc4c(=O)n1-3)CCCC2 (centres undefined) | 7.16 | < 4.00 | viability at 24 h, 50 µM (in vitro [2]): 75.9%; viability at 24 h, 300 µM (in vitro [3]): 66.4%; viability at 24 h, 10 µM (in vitro [4]): 83.3%; viability at 24 h, 25 µM (in vitro [5]): 80%; viability at 24 h, 100 µM (in vitro [6]): 71.4%; viability at 24 h, 1 µM (in vitro [7]): 91.2%; viability at 24 h, 5 µM (in vitro [8]): 87.5%
Nc1c2c(nc3c1C(c1ccccc1F)n1c(=O)c4ccccc4c(=O)n1-3)CCCC2 (centres undefined) | 6.21 | < 4.00 | 
Nc1c2c(nc3c1C(c1ccc(Cl)cc1)n1c(=O)c4ccccc4c(=O)n1-3)CCCC2 (centres undefined) | 7.22 | 4.02 | viability at 24 h, 50 µM (in vitro [2]): 92.4%; viability at 24 h, 300 µM (in vitro [3]): 89.3%; viability at 24 h, 10 µM (in vitro [4]): 95.1%; viability at 24 h, 25 µM (in vitro [5]): 94.4%; viability at 24 h, 100 µM (in vitro [6]): 91.3%; viability at 24 h, 1 µM (in vitro [7]): 98.6%; viability at 24 h, 5 µM (in vitro [8]): 96.2%
Nc1c2c(nc3c1C(c1ccccc1[N+](=O)[O-])n1c(=O)c4ccccc4c(=O)n1-3)CCCC2 (centres undefined) | 6.55 | < 4.00 | 
Nc1c2c(nc3c1C(c1ccccc1Cl)n1c(=O)c4ccccc4c(=O)n1-3)CCCC2 (centres undefined) | 6.23 | < 4.00 | 
CCCCCC1c2c(nc3c(c2N)CCCC3)-n2c(=O)c3ccccc3c(=O)n21 (centres undefined) | 6.21 | < 4.00 | 
Cc1cccc(C2c3c(nc4c(c3N)CCCC4)-n3c(=O)c4ccccc4c(=O)n32)c1 (centres undefined) | 6.33 | < 4.00 | 
COc1cc(OC)cc(C2c3c(nc4c(c3N)CCCC4)-n3c(=O)c4ccccc4c(=O)n32)c1 (centres undefined) | 5.47 | < 4.00 | 
